What was measured:
[1] = refractive index (Na D-line) (dimensionless); details: 101.33 kPa, Liquid, Standard Abbe refractometry
[2] = Liquid; for mass density / viscosity: 101 kPa
[3] = xn = mol fraction of the nth substance listed; details: 101 kPa, Liquid

ClC(Cl)Cl [trichloromethane]
Details	mass density, [2] [kg/m3]	refractive index, [1]	vapor or sublimation pressure, [2] [kPa]	viscosity, [2] [mPa·s]
283.15 K	1507.3	1.45189	–	0.629
293.15 K	1488.4	1.44589	–	0.573
303.15 K	1469.4	1.43987	32.19	0.516
313.15 K	1450	1.43386	–	0.468

CCC(C)=O [butanone] + ClC(Cl)Cl
[3], x2 = 0
Details	mass density [kg/m3]	viscosity [mPa·s]
283.15 K	815.9	0.472
293.15 K	805.5	0.423
303.15 K	795.1	0.382
313.15 K	784.3	0.347

CCC(C)=O [butanone]
Details	mass density, [2] [kg/m3]	refractive index, [1]	vapor or sublimation pressure, [2] [kPa]	viscosity, [2] [mPa·s]
283.15 K	815.9	1.384	–	0.472
293.15 K	805.5	1.37888	–	0.423
303.15 K	795.1	1.37383	15.74	0.382
313.15 K	784.3	1.36856	–	0.347

ClC(Cl)Cl [trichloromethane] + CCC(C)=O
[3]
Details	mass density, 283.15 K [kg/m3]	mass density, 293.15 K [kg/m3]	mass density, 303.15 K [kg/m3]	mass density, 313.15 K [kg/m3]	viscosity, 283.15 K [mPa·s]	viscosity, 293.15 K [mPa·s]	viscosity, 303.15 K [mPa·s]	viscosity, 313.15 K [mPa·s]
x1 = 0.0906	872.7	861.7	850.7	839.3	0.528	0.475	0.419	0.385
x1 = 0.1806	930.4	918.7	907.1	895.1	0.588	0.526	0.468	0.42
x1 = 0.272	990.2	977.9	965.6	952.9	0.627	0.556	0.499	0.451
x1 = 0.3661	1053.3	1040.2	1027.2	1013.7	0.66	0.594	0.53	0.477
x1 = 0.4551	1113.9	1100.2	1086.4	1072.3	0.692	0.62	0.553	0.498
x1 = 0.549	1179.5	1165	1150.5	1135.5	0.711	0.633	0.565	0.51
x1 = 0.633	1238.9	1223.7	1208.5	1192.7	0.712	0.636	0.571	0.515
x1 = 0.7035	1289.3	1273.6	1257.7	1241.3	0.717	0.631	0.566	0.513
x1 = 0.7973	1357.5	1340.7	1323.9	1306.6	0.701	0.63	0.566	0.51
x1 = 0.9068	1437.7	1419.8	1401.8	1383.4	0.674	0.61	0.546	0.491
x1 = 1	1507.3	1488.4	1469.4	1450	0.629	0.573	0.516	0.468
